The target in series [1] is mMC3R (Mus musculus, UniProt P33033). The series can be described thus: β-galactosidase cAMP reporter agonist assay, mMC3R. The following applies: read-out: efficacy at the mMC3R compared to the maximal response of α-MSH.
For series [2] the following is noted: rhesus monkey, in vivo; cited from earlier work.

mMC3R, sequence (P33033 whole entry): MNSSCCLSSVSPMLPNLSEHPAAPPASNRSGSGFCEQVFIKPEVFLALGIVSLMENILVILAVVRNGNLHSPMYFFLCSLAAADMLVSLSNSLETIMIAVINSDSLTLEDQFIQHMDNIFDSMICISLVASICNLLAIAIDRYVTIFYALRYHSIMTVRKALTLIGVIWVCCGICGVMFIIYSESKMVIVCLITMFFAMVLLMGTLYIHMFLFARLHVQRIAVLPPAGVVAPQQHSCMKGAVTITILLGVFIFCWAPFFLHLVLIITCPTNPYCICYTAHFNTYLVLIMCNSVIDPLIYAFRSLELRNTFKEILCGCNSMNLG

`O=C(NC(Cc1ccc(Cl)cc1)C(=O)N1CCC(Cn2cncn2)(C2CCCCC2)CC1)[C@H]1Cc2ccccc2CN1` (stereo in doubt) [THIQ, N-[(3R)-1,2,3,4-tetrahydroisoquinolinium-3-ylcarbonyl]-(1R)-1-(4-chlorobenzyl)2-[4-cyclohexyl-4-(1H-1,2,4-triazol-1-ylmethyl)piperidin-1-yl]-2-oxoethylamine]: the Emax in series [1] is 90 to 95%.

With “Ac-DArg-c[Cys-Glu-His-DPhe-Arg-Trp-Cys-NH2 [LY2112688]”, the “effect on heart rate and blood pressure” value in series [2] was “significantly increased heart rate and blood pressure”.

The values are drawn from paper PMC8552302 (Journal of medicinal chemistry, 2021).
